Consider 16 compounds from patent US7276519B2, “Thieno[3,2-b]pyridine-6-carbonitriles and thieno[2,3-b]pyridine-5-carbonitriles as protein kinase inhibitors” (Wyeth, priority 2002, dated 2007).

Broadly, the melting point is the temperature of the solid-liquid transition. In general, IC50 refers to the point on the concentration scale where inhibition reaches its midpoint.

Several values for one entry are separate records, joined by “and”; a condition that tells them apart may be missing. Equal entries are not always repeated. Where two headings read alike, the source gives them in different places. Bounds are passed on as bounds.

The target in data set [1] is T1, Rat2 fibroblasts stably transformed with v-Src/Hu Lck fusion gene (Homo sapiens, UniProt P06239, cells depend on it, form not given).
T1 construct: Candidates are e.g. Schmidt-Ruppin A (P00524) or Prague C (P00526); The human Lck catalytic domain stands in place of the v-Src catalytic domain
T1 sequence (P06239 whole entry, change not shown, the tested form may be a part): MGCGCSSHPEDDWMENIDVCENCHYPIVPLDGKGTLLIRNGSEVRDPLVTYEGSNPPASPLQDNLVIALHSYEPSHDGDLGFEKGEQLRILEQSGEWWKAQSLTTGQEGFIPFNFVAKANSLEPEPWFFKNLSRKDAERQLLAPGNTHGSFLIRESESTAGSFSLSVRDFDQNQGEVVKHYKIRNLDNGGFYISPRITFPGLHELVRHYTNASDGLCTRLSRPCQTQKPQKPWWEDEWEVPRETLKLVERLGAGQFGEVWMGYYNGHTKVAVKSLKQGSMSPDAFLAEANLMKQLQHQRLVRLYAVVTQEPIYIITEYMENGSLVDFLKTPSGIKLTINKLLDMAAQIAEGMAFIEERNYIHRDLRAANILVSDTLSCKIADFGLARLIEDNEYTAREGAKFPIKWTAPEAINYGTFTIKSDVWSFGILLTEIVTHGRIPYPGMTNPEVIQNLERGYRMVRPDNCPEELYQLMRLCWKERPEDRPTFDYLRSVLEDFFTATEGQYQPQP
Kind of data set: Anchorage independent Lck-transformed fibroblast proliferation assay. The data set is classed as cell-based, rat. The procedure: Anchorage Independent Lck-Transformed Fibroblast Proliferation Assay
Rat2 fibroblasts stably transformed with a plasmid containing a CMV promotor controlled v-Src/Hu Lck fusion gene in which the catalytic domain of human Lck was inserted in place of the v-Src catalytic domain in the v-Src gene are used for the measurement of src dependent suspension growth. Ultra-low cluster plates (Costar # 3474) are seeded with 10,000 cells per well on Day 1. Compound is added in serial two-fold dilutions from 10 micromolar to 0.009 micromolar on Day 2 and MTS reagent (Promega) is added on Day 5 (100 microliters of MTS/medium mix+100 microliters of medium already on the cells and the absorbance is measured at 490 nm. The results are analyzed as follows to yield an IC50 for proliferation (micromolar units) as follow: % inhibition=(Abs490 nm sample−blank)/(Abs490 nm no cmpd control−blank)×100%. The results obtained for representative compounds of this invention are listed in Table 2. Multiple entries for a given compound indicate that it was tested multiple times.

The target of data set [2] is T2, Recombinant human Src enzyme (Homo sapiens, UniProt P12931).
T2 construct: purchased PanVera P3044
T2 sequence (P12931 whole entry): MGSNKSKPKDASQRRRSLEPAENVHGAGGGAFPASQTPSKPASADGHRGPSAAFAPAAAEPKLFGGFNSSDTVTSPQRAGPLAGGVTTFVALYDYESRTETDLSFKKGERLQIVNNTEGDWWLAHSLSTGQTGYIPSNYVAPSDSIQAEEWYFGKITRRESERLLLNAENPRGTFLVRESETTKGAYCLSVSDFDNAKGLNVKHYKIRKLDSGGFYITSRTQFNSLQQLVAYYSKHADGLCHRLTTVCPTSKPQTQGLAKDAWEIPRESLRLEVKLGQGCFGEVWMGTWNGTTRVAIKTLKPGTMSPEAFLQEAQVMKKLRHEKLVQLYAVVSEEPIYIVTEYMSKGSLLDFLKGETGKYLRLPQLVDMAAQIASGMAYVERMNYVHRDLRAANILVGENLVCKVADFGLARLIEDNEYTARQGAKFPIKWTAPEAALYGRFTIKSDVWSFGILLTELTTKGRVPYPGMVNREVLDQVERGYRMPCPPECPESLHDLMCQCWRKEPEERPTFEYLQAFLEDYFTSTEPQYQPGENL
Kind of data set: Src kinase assay (LANCE FRET). Particulars: Table 3; 100 μM ATP, biotinylated Cdk1 peptide substrate. The data set is classed as biochemical. The procedure: Recombinant human Src enzyme was obtained from PanVera (P3044). […] Homogeneous fluorescence resonance energy transfer kinase assays were performed using the europium/APC detection format (LANCE, Perkin Elmer). Src enzyme (10 ng) was mixed with biotinylated peptide (final concentration 2 μM), 50 mM Hepes (pH 7.5), 10 mM MgCl2, 20 μg/ml BSA, 0.001% Brij-35 (sigma), 100 μM ATP, 1% DMSO. The kinase reaction was incubated for 70 min at 37° C. The reaction was stopped with EDTA at a final concentration of 30 mM EDTA/25 mM Hepes (pH 7.5)/10 μg/ml BSA. The mixture was combined with Eu-labeled anti-phosphotyrosine antibody PT66 (Perkin Elmer, AD0068) and Streptavidin Surelight-APC (Perkin Elmer, CR130-100) in 50 mM Hepes (pH 7.5)/20 μg/ml BSA, and incubated for 30 min according to manufacturer's specifications. […] Multiple entries for a given compound indicate that it was tested multiple times.
(TR-FRET usually uses a lanthanide donor and a delayed reading to cut background.)

Data set [3] relates to Rat2 fibroblasts stably transformed with v-Src/Hu c-Src fusion gene. Kind of data set: Anchorage independent Src-transformed fibroblast proliferation assay. The format is cell-based, rat. The procedure:
Anchorage Independent Src-Transformed Fibroblast Proliferation Assay Rat2 fibroblasts stably transformed with a plasmid containing a CMV promotor controlled v-Src/Hu c-Src fusion gene in which the catalytic domain of human c-Src was inserted in place of the v-Src catalytic domain in the v-Src gene are used for the measurement of src dependent suspension growth. […] Multiple entries for a given compound indicate that it was tested multiple times.

Setting [4] is: Table 3, read-out: Lck Cells IC50.
Setting [5] is: Rattus norvegicus, Rat2, read-out: Src Cells IC50 μM or % inhib at 10 μM (IC50 values), Table 3.
Setting [6] is: read-out: Src Cells IC50 μM or % inhib at 10 μM (IC50 values), Table 3.
Where [7] appears, read: Rattus norvegicus, Rat2, Table 3, read-out: Src Cells IC50 μM or % inhib at 10 μM (IC50 values).
Setting [8] is: Table 3, read-out: Src Cells IC50 μM or % inhib at 10 μM (IC50 values).
[9] abbreviates: Table 2, suspension growth, MTS readout Day 5, read-out: Lck cells IC50.
Where [10] appears, read: Rattus norvegicus, Rat2, 120 h, Table 1, suspension growth, MTS readout Day 5, read-out: Src cells IC50.

Regarding `COc1cc(Nc2c(C#N)cnc3cc(-c4ccc(C(=O)N5CCN(C)CC5)cc4)sc23)c(Cl)cc1Cl` [Example 117, 7-[(2,4-dichloro-5-methoxyphenyl)amino]-2-{4-[(4-methylpiperazin-1-yl)carbonyl]phenyl}thieno[3,2-b]pyridine-6-carbonitrile], the melting point was 240 to 243 °C (dec.). The GI50 in data set [1] (setting [4]) is 129 nM and 171 nM. The IC50 in data set [2] is 15 nM and 11 nM. Also, in data set [3] (setting [5]), the IC50 was found to be 0.388 µM. In data set [3] (setting [6]), the IC50 turned out to be 0.274 µM.
As to `CCN(CC)Cc1ccc(-c2cc3ncc(C#N)c(Nc4cc(OC)c(Cl)cc4Cl)c3s2)cc1` [Example 106, 7-[(2,4-dichloro-5-methoxyphenyl)amino]-2-{4-[(diethylamino)methyl]phenyl}thieno[3,2-b]pyridine-6-carbonitrile], the melting point lay in the range of 160 to 162 °C. The GI50 in data set [1] (setting [4]) was 103 nM and 95 nM and 58 nM and 71 nM. In data set [2], the half-inhibitory concentration (IC50) is 10 nM and 6.6 nM.
`COc1cc(Nc2c(C#N)cnc3cc(-c4ccc(CN5CCNCC5)cc4)sc23)c(Cl)cc1Cl` [Example 95, 7-[(2,4-dichloro-5-methoxyphenyl)amino]-2-[4-(piperazin-1-ylmethyl)phenyl]thieno[3,2-b]pyridine-6-carbonitrile]: the melting point was in the range of 218 to 220 °C. The GI50 in data set [1] (setting [4]) is 193 nM and 133 nM and 168 nM. The concentration for half-maximal inhibition (IC50) in data set [2] is 8.4 nM and 8.3 nM and 6.9 nM and 5.3 nM.
For the compound `COc1cc(Nc2c(C#N)cnc3cc(-c4ccc(CN5CCN(C)CC5)cn4)sc23)c(Cl)cc1Cl` [Example 103, 7-[(2,4-dichloro-5-methoxyphenyl)amino]-2-{5-[(4-methylpiperazin-1-yl)methyl]pyridin-2-yl}thieno[3,2-b]pyridine-6-carbonitrile], the melting point lay in the range of 229 to 232 °C. For the same compound, the GI50 in data set [1] (setting [4]) was 58 nM and 71 nM. Also, in data set [2], the concentration for half-maximal inhibition (IC50) was 11 nM and 9.6 nM. In addition, in data set [3] (setting [7]), the half-inhibitory concentration (IC50) was found to be 0.401 µM. Moreover, in data set [3] (setting [8]), the concentration for half-maximal inhibition (IC50) came out at 0.445 µM.
`COc1cc(Nc2c(C#N)cnc3cc(-c4cccc(CN(C)C)n4)sc23)c(Cl)cc1Cl` [Example 128, 7-[(2,4-dichloro-5-methoxyphenyl)amino]-2-{6-[(dimethylamino)methyl]pyridin-2-yl}thieno[3,2-b]pyridine-6-carbonitrile] yielded a melting point of 221 to 223 °C. For the same compound, the GI50 in data set [1] (setting [4]) is 539 nM and 557 nM. The concentration for half-maximal inhibition (IC50) in data set [2] is 66 nM and 69 nM.
Consider `COc1cc(Nc2c(C#N)cnc3cc(-c4csc(CN(C)C)c4)sc23)c(Cl)cc1Cl` [Example 80, 7-[(2,4-dichloro-5-methoxyphenyl)amino]-2-{5-[(dimethylamino)methyl]thien-3-yl}thieno[3,2-b]pyridine-6-carbonitrile], for which the melting point lay within 184 to 186 °C. Further, the GI50 in data set [1] (setting [4]) was 74 nM and 73 nM. For the same compound, the concentration for half-maximal inhibition (IC50) in data set [2] was 13 nM and 14 nM. In addition, the IC50 in data set [3] (setting [5]) came out at 0.79 µM. Further, the IC50 in data set [3] (setting [6]) stood at 0.58 µM.
Compound `COc1cc(Nc2c(C#N)cnc3cc(-c4ccc(CNCCCO)cc4)sc23)c(Cl)cc1Cl` [Example 107, 7-[(2,4-dichloro-5-methoxyphenyl)amino]-2-(4-{[(3-hydroxypropyl)amino]methyl}phenyl)thieno[3,2-b]pyridine-6-carbonitrile] came in with a melting point of 141 to 143 °C. Moreover, the GI50 in data set [1] (setting [4]) is 63 nM and 65 nM. In data set [2], the IC50 is 9 nM and 11 nM. For the same compound, in data set [3] (setting [7]), the IC50 worked out at 0.531 µM. For the same compound, in data set [3] (setting [8]), the IC50 turned out to be 0.543 µM.
The compound `COc1cc(Nc2c(C#N)cnc3c(-c4ccc(CN5CCN(C)CC5)cc4)csc23)c(Cl)cc1Cl` [Example 142, 7-[(2,4-dichloro-5-methoxyphenyl)amino]-3-{4-[(4-methylpiperazin-1-yl)methyl]phenyl}thieno[3,2-b]pyridine-6-carbonitrile] came in with a melting point of 197 to 198 °C. Moreover, the GI50 in data set [1] (setting [4]) is 3540 nM and 4350 nM. Moreover, in data set [2], the IC50 was more than 10000 nM. In addition, the half-maximal inhibitory concentration (IC50) in data set [3] (setting [7]) is 3.25 µM. In addition, the 50% inhibitory concentration (IC50) in data set [3] (setting [8]) is 1.99 µM.
`COc1cc(Nc2c(C#N)cnc3cc(-c4ccc(CN5CCS(=O)(=O)CC5)cc4)sc23)c(Cl)cc1Cl` [Example 111, 7-[(2,4-dichloro-5-methoxyphenyl)amino]-2-{4-[(1,1-dioxidothiomorpholin-4-yl)methyl]phenyl}thieno[3,2-b]pyridine-6-carbonitrile]: the GI50 in data set [1] (setting [4]) is 283 nM and 428 nM. In addition, the half-maximal inhibitory concentration (IC50) in data set [2] amounted to 16 nM; in data set [3] (setting [7]), 0.572 µM; in data set [3] (setting [8]) it was 0.411 µM.
The compound `COc1cc(Nc2c(C#N)cnc3cc(/C=C/n4nccn4)sc23)c(Cl)cc1Cl` [Example 66, 7-[(2,4-Dichloro-5-methoxyphenyl)amino]-2-[(E)-2-(2H-1,2,3-triazol-2-yl)vinyl]thieno[3,2-b]pyridine-6-carbonitrile] had a melting point of 315 to 316 °C. Also, the GI50 in data set [1] (setting [4]) was more than 10000 nM. The inhibition at 10 µM in data set [3] (Rattus norvegicus, Rat2, Table 3, at 10 μM, read-out: Src Cells IC50 μM or % inhib at 10 μM (% values)) amounted to 26%. For the same compound, the “Src Cells IC50 μM or % inhib at 10 μM (% values)” value in data set [3] (Table 3, at 10 μM) was 26%, 26%.
Regarding `COc1cc(Nc2c(C#N)cnc3cc(-c4ccc(CN(C)CCN(C)C)cc4)sc23)c(Cl)cc1Cl` [Example 72, 7-[(2,4-dichloro-5-methoxyphenyl)amino]-2-(4-{[[2-(dimethylamino)ethyl](methyl)amino]methyl}phenyl)thieno[3,2-b]pyridine-6-carbonitrile], the GI50 in data set [1] (setting [4]) is 120 nM and 77 nM. Moreover, the concentration for half-maximal inhibition (IC50) was 9.4 nM and 15 nM in data set [2]; 1.3 µM in data set [3] (setting [7]); 0.7 µM in data set [3] (setting [8]).
Compound `COc1cc(Nc2c(C#N)cnc3cc(-c4ccc(N5CCOCC5)nc4)sc23)c(Cl)cc1Cl` [Example 109, 7-[(2,4-dichloro-5-methoxyphenyl)amino]-2-(6-morpholin-4-ylpyridin-3-yl)thieno[3,2-b]pyridine-6-carbonitrile] returned a melting point of 225 to 227 °C. The GI50 in data set [1] (setting [4]) was 4500 nM. Further, the half-inhibitory concentration (IC50) in data set [3] (setting [7]) was more than 10 µM.
As to `COc1cc(Nc2c(C#N)cnc3cc(-c4csc(CN5CCOCC5)c4)sc23)c(Cl)cc1Cl` [Example 39, 7-[(2,4-Dichloro-5-methoxyphenyl)amino]-2-[5-(morpholin-4-ylmethyl)thien-3-yl]thieno[3,2-b]pyridine-6-carbonitrile], the melting point is 209 to 212 °C. Moreover, the GI50 in data set [1] (setting [9]) is 680 nM. For the same compound, the IC50 in data set [3] (setting [10]) turned out to be 0.85 µM.
Consider `COc1cc(Nc2c(C#N)cnc3cc(-c4cnc(CN5CCN(C)CC5)n4C)sc23)c(Cl)cc1Cl` [Example 59, 7-[(2,4-Dichloro-5-methoxyphenyl)amino]-2-{1-methyl-2-[(4-methylpiperazin-1-yl)methyl]-1H-imidazol-5-yl}thieno[3,2-b]pyridine-6-carbonitrile], for which the melting point lay within 234 to 235 °C. In data set [1] (setting [9]), the GI50 is 270 nM and 320 nM. Also, the IC50 in data set [3] (setting [10]) worked out at 1.21 µM. Also, the IC50 in data set [3] (Table 1, suspension growth, MTS readout Day 5, read-out: Src cells IC50) amounted to 2.29 µM.
Turning to `COc1cc(Nc2c(C#N)cnc3cc(-c4ccc(CN5CCN(S(C)(=O)=O)CC5)cc4)sc23)c(Cl)cc1Cl` [Example 122, 7-[(2,4-dichloro-5-methoxyphenyl)amino]-2-(4-{[4-(methylsulfonyl)piperazin-1-yl]methyl}phenyl)thieno[3,2-b]pyridine-6-carbonitrile], the melting point lay within 211 to 213 °C. Moreover, the GI50 in data set [1] (setting [4]) is 897 nM and 1080 nM and 1560 nM. In data set [2], the half-inhibitory concentration (IC50) was 18 nM and 23 nM.
In turn, `COc1cc(Nc2c(C#N)cnc3cc(-c4ccc(CN5CCN(c6ccccn6)CC5)cc4)sc23)c(Cl)cc1Cl` [Example 112, 7-[(2,4-dichloro-5-methoxyphenyl)amino]-2-{4-[(4-pyridin-2-ylpiperazin-1-yl)methyl]phenyl}thieno[3,2-b]pyridine-6-carbonitrile] displayed a melting point of 245 to 247 °C. In data set [1] (setting [4]), the GI50 is more than 10000 nM. In data set [3] (setting [7]), the half-maximal inhibitory concentration (IC50) is more than 10 µM. The 50% inhibitory concentration (IC50) in data set [3] (setting [8]) came to 5.78 µM.
